Where two headings read alike, the source gives them in different places.
Assays:
[1] = target: Collagenase from Clostridium histolyticum; experiment: Collagenase inhibition; format: biochemical; details: mean ± SD
Protocol: The assay was performed according to a previous study. Collagenase was obtained from Clostridium histolyticum (ChC—EC.3.4.23.3), and the assay was performed in 50 mM Tricine buffer consisting of 400 mM NaCl and 10 mM CaCl2 (pH 7.5). Collagenase was dissolved in the buffer to achieve an enzyme activity concentration of 0.8 unit/mL, and the synthetic substrate N-[3-(2-furyl) acryloyl]-Leu-Gly-Pro-Ala (FALGPA) was dissolved in the buffer to make up the final concentration of 2 mM. Serial diluted samples were incubated with the enzyme for 15 min. After that, the substrate was added to each serial solution. Absorbance was measured using a microplate reader (Costar, 96) at 490 nm. Each measurement was made in triplicate. Percentage of collagenase inhibition (%) was calculated according to the formula: inhibition (%) = [(Acontrol − Asample/Acontrol) × 100].
A sample: absorbance value of the collagenase activity from samples or positive control (quercetin)
A control: absorbance value of the collagenase activity from negative control (solution without samples)

[2] = target: mushroom tyrosinase (Agaricus bisporus, UniProt C7FF04); experiment: Tyrosinase inhibition; format: biochemical; details: mean ± SD
Protocol: This assay was performed using mushroom tyrosinase and L-DOPA as substrates, according to a previous study with slight modifications. […] After adding L-DOPA, the reaction mixture was monitored at 475 nm for dopachrome formation using a microplate reader (Costar, 96). Each measurement was made in triplicate. The percentage of tyrosinase inhibition (%) was calculated according to the formula: inhibition (%) = [(Acontrol − Asample/Acontrol) × 100]. […] A control: absorbance value of the tyrosinase activity from negative control (solution without samples)

[3] = target: T1, hyaluronidase (Bos taurus, UniProt Q2YDK3); experiment: Hyaluronidase inhibition; format: biochemical; details: mean ± SD
T1 sequence (Q2YDK3 36-553): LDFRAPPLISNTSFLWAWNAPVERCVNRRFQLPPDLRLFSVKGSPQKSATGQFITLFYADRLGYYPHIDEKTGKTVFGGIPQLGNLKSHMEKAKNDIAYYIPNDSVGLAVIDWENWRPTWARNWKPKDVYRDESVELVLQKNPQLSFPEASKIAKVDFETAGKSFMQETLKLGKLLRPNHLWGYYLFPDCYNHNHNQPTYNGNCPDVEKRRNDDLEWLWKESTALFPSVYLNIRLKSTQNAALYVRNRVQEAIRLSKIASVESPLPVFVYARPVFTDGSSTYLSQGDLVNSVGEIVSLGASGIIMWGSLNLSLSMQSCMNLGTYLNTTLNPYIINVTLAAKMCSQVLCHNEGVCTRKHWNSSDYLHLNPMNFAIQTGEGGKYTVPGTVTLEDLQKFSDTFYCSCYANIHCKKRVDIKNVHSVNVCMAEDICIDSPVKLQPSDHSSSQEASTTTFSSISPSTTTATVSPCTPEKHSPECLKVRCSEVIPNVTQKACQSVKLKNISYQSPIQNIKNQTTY
Protocol: The hyaluronidase inhibition assay was performed using hyaluronidase (1.5 mg/mL) and the substrate hyaluronic acid (1 mg/ml in 0.1 M acetate buffer; pH 3.5), according to a previous study. The reaction mixture was prepared consisting of 25 μL of CaCl2 (12.5 mM), 12.5 μL of each test sample (serial dilution), hyaluronidase (1.5 mg/mL), and 100 μL substrate hyaluronic acid. Afterwards, reaction mixture was placed in a water bath at 100°C for 3 min, and subsequently, 25 μL of 0.8 M KBO2 was added. After cooling to the room temperature, 800 μL DMAB (4 g DMAB in 40 mL acetic acid and 5 mL 10 N HCl) was added to the mixture following the incubation for 20 min. The absorbance was measured at 600 nm. Each measurement was made in triplicate. The percentage of hyaluronidase inhibition (%) was calculated according to the formula: inhibition (%) = [(Acontrol − Asample/Acontrol) × 100].
A sample: absorbance value of the hyaluronidase activity from samples or positive control (quercetin)
A control: absorbance value of the hyaluronidase activity from negative control (solution without samples)

[4] = target: Porcine pancreatic elastase (Sus scrofa, UniProt P00772); experiment: Elastase inhibition; format: biochemical
Protocol: This assay was performed according to a previous study. Porcine pancreatic elastase was used in this assay at stock concentration of 3.33 mg/mL in sterile water. N-Succinyl-[…]-nitroanilide ([…]) was used as a substrate and dissolved in buffer to make up 1.6 mM solution. A serial dilution of the extract with amount of 50 μL each was incubated with the enzyme for 15 min, and the substrate was added subsequently and makes up the final reaction mixture of 250 μL. Absorbance value was measured at 400 nm using a microplate reader. Each measurement was made in triplicate. The percentage of elastase inhibition (%) was calculated according to the formula: inhibition (%) = [(Acontrol - Asample/Acontrol) × 100]. […] A control: absorbance value of the elastase activity from negative control (solution without samples)

[5] = DPPH assay
Protocol: (§1) Total phenolic content was estimated using the Folin–Ciocalteu method as described in a previous study, while antioxidant activity was determined using two colorimetric methods, DPPH assay and FRAP assay. The analysis was performed as in the previous study.

[6] = FRAP assay
Protocol: as §1

[7] = mean ± SD, read-out: Elastase IC50 (converted)

Chain of Porcine pancreatic elastase (P00772 27-266): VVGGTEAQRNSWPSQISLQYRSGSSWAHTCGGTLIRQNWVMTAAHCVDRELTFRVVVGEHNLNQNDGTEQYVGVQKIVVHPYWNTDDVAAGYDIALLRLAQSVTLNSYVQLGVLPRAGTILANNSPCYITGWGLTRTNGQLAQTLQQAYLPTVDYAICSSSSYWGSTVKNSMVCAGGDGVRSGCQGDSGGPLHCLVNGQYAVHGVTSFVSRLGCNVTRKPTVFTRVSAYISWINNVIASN
Chain of mushroom tyrosinase (C7FF04 2-392): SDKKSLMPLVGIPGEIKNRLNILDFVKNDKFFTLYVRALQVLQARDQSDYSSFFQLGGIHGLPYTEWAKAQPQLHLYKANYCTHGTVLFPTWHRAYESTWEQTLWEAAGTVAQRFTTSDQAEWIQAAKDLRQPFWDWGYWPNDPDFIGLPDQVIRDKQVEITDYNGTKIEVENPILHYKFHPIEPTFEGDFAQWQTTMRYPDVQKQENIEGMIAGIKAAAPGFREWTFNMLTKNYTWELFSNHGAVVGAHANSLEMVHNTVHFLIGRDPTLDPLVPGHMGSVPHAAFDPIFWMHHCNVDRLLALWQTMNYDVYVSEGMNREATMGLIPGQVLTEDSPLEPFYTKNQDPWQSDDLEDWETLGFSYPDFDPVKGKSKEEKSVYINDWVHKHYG

SMILES | Collagenase IC50 [1] [µg/mL] | IC50 [4, 7] [µM] | also measured
O.Oc1cc(O)c2c(c1)O[C@H](c1ccc(O)c(O)c1)[C@@H](O)C2 [Catechin] | 29.33 ± 2.4 |  | Tyrosinase IC50 [2]: 22.54 ± 4.61 µg/mL; Hyaluronidase IC50 [3]: 22.99 ± 0.2 µg/mL; Elastase IC50 ([4]; mean ± SD): 15.00 ± 5.9 µg/mL
C[C@@H]1O[C@@H](OC[C@H]2O[C@@H](Oc3c(-c4ccc(O)c(O)c4)oc4cc(O)cc(O)c4c3=O)[C@H](O)[C@@H](O)[C@@H]2O)[C@H](O)[C@H](O)[C@H]1O [Rutin] | 63.46 ± 3.4 | 199 | 
O=C(O)[C@]1(O)C[C@@H](O)[C@@H](O)[C@H](O)C1 [Quinic acid] | 52.78 ± 1.8 | 748 | 
Oc1cc(O)c2c(c1)O[C@H](c1ccc(O)c(O)c1)[C@H](O)C2 [Epicatechin] | 65.96 ± 7.8 | 145 | 
O=C1O[C@H]([C@@H](O)CO)C(O)=C1O [Ascorbic acid] |  |  | DPPH (EC50) [5]: 2.92 ± 0.29 µg/mL
O=c1c(O)c(-c2ccc(O)c(O)c2)oc2cc(O)cc(O)c12 [Quercetin] |  |  | FRAP [6]: 24.04 ± 1.23 mM FeSO4/mg extract
O=c1cc(CO)occ1O [Kojic acid, reference compound] |  |  | IC50 [4]: 152 µM

— PMC8979739, “Phytochemical Profiling of the Leaf Extract of Ximenia americana var. caffra and Its Antioxidant, Antibacterial, and Antiaging Activities In Vitro and in Caenorhabditis elegans: A Cosmeceutical and Dermatological Approach” (Oxidative Medicine and Cellular Longevity, 2022)
